Source: patent US5942495A, “Antibiotics” (BTG International Limited, priority 1997, dated 1999)
In brackets after ≈: the same amount, converted by molar mass. Where two headings read alike, the source gives them in different places.

How the values were obtained:
[1] = system: Candida albicans ATCC 262778; assay: In vitro antifungal activity (growth inhibition, turbidimetric, liquid Sabouraud medium); assay type: cell-based; conditions: for IC50 (concentration inhibiting growth of fungi by 50%): 24 hours at 30° C., liquid Sabouraud medium
Description: The antifungal activity of compounds was determined following the standard for polyene macrolide procedure. The liquid Sabouraud medium was inoculated with 10^4 cells/ml of test organism Candida albicans ATCC 262778 and incubated for 24 hours at 30° C. with the tested antibiotic (serial dilutions). Amphotericin B was used as the reference. Compounds were dissolved in DMF and suitable amounts of the solutions were added to the medium. Turbidimetric method (660 nm) was applied to determine the degree of growth inhibition. The concentration of antibiotic at which the growth of fungi was inhibited by 50% was determined from the dose response curve. The obtained IC50 value characterized antifungal activity of the compound.

human erythrocytes = assay: In vitro toxicity (haemolysis of human erythrocytes); assay type: cell-based; conditions: 30 minutes at 37° C.
Description: (§1) Toxicity of compounds in vitro against animal cells was determined using standard for polyene macrolides procedure, by the determination of the degree of haemolysis of human erythrocytes. Human erythrocytes isolated from fresh, citrated human blood were washed twice with cold saline. The cells were diluted 250 times with saline and equilibrated for 30 minutes at 37° C. Samples of erythrocytes were incubated with various concentrations of antibiotics (the base solution in DMF) for 30 minutes at 37° C. After centrifugation the lysis of erythrocytes was assessed by determination of the haemoglobin released to the solution. Optical density of the supernatant was measured at […]. The results were expressed by EH50 value, as concentration of antibiotic at which 50% of hemolysis occurred. The values of EH50 were read from a curve relating the degree of hemolysis with antibiotic dose.

[2] = as above; assay type: cell-based; conditions: human, erythrocytes, 30 minutes at 37° C., read-out: EH50 (concentration at which 50% of hemolysis occurred)
Description: as §1

[3] = system: Swiss Webster female mice; assay: Serum indexes after acute toxicity study; assay type: in vivo; conditions: in comparison with the control (5% glucose), after 7 days
Description: (§3) Various doses of the tested compound, and for comparison, amphotericin B in form of Fungizone, dissolved in 5% glucose were given intravenously to the animals. The administered volume of the solution was 0.5 ml. 0.5 ml of 5% solution of glucose was administered to mice as a control. Every dose of both preparations was administered to 5 mice. […] Next, the animals were killed, and some serum indexes were determined.

[4] = In vivo toxicity, maximum tolerated dose (MTD); conditions: mouse, in vivo, Balb/c mice
Description: (§2) In vivo toxicity was determined for methyl ester of N-methyl-N-D-fructosylamphotericin B L-aspartate as the maximum tolerated dose (MTD), and as the acute toxicity (LD50). To determine MTD dose the compound was dissolved in 5% solution of glucose, and administered intravenously and intraperitonealy to Balb/c mice in single and multiple doses.

Balb/c mice = assay: In vivo toxicity, maximum tolerated dose (MTD); conditions: intraperitoneal 100 mg/kg for 5 days, 20 days of observation
Description: as §2

Acute toxicity (LD50) = conditions: mouse, in vivo, iv
Description: as §3

Solubility = assay type: physicochemical
Candida albicans = assay: Chemotherapeutic efficacy, systemic murine candidose model; assay type: in vivo; conditions: 840 h, intravenous, twice a day, 5 days, female Swiss Webster mice
Description: Candida albicans was grown overnight in Sabouraud dextrose broth at room temperature. The fungal cells were centrifuged, washed twice with 0.9% solution of sodium chloride, and suspended in physiological salt solution. Female Swiss Webster mice of 25 g weight, were injected intravenously with 10^5 cells of Candida in 0.2 ml of 0.9% sodium chloride solution. Initially, the infection was systemic, but by 2 to 3 days it was localized to the kidneys. Untreated animals usually died between 7 to 14 days post-infection. Three days post-infection, animals were treated intravenously, twice a day, for 5 consecutive days with a 5 to 6 hours interval. Preparation was administered as a solution in 5% glucose. […] After this time, the surviving animals were sacrificed, their kidneys were removed, homogenized in sterile water, and the homogenate was placed on Sabouraud dextrose agar, and the grown colonies of Candida were counted. […] The dose, called ED50, was calculated using a method given in J.Hyg.

N-methyl-N-D-fructosylamphotericin B methyl ester [Example VII]
IC50 (concentration inhibiting growth of fungi by 50%) [1]: 0.42 µg/mL

N-methyl-N-D-fructosylnystatin methyl ester [Example III]
EH50 (concentration at which 50% of hemolysis occurred) (human erythrocytes): above 300 μg/ml
IC50 (concentration inhibiting growth of fungi by 50%) [1]: 6.8 µg/mL

N-methyl-N-D-fructosylamphotericin B methyl ester [Example IX]
IC50 (concentration inhibiting growth of fungi by 50%) [1]: 6.0 µg/mL

C[C@@H]1[C@H](O)[C@@H](C)/C=C/C=C/C=C/C=C/C=C/C=C/C=C/[C@H](O[C@@H]2O[C@H](C)[C@@H](O)[C@H](N)[C@@H]2O)C[C@@H]2O[C@](O)(C[C@@H](O)C[C@@H](O)[C@H](O)CC[C@@H](O)C[C@@H](O)CC(=O)O[C@H]1C)C[C@H](O)[C@H]2C(=O)O [amphotericin B, reference compound]
HC50 at 0.5 h [2]: 1.5 µg/mL

N-methyl-N-D-fructosylvacidin methyl ester [Example IV]
EH50 (concentration at which 50% of hemolysis occurred) (human erythrocytes): 170 µg/mL
IC50 (concentration inhibiting growth of fungi by 50%) [1]: 0.01 µg/mL

COC(=O)[C@H]1[C@@H]2C[C@@H](O[C@@H]3O[C@H](C)[C@@H](O)[C@H](N(C)CC4(O)OC[C@@H](O)[C@@H](O)[C@@H]4O)[C@@H]3O)/C=C/C=C/C=C/C=C/C=C/C=C/C=C/[C@H](C)[C@@H](O)[C@@H](C)[C@H](C)OC(=O)C[C@H](O)C[C@H](O)CC[C@@H](O)[C@H](O)C[C@H](O)C[C@](O)(C[C@@H]1O)O2 (single isomer, unassigned) [Example VIII, N-methyl-N-D-fructosylamphotericin B methyl ester]
EH50 (concentration at which 50% of hemolysis occurred) (human erythrocytes; 30 min): above 200 μg/ml
IC50 (concentration inhibiting growth of fungi by 50%) [1]: 0.42 µg/mL

COC(=O)[C@H]1[C@@H]2C[C@@H](O[C@@H]3O[C@H](C)[C@@H](O)[C@H](N(C)CC4(O)OC[C@@H](O)[C@@H](O)[C@@H]4O)[C@@H]3O)/C=C/C=C/C=C/C=C/C=C/C=C/C=C/[C@H](C)[C@@H](O)[C@@H](C)[C@H](C)OC(=O)C[C@H](O)C[C@H](O)CC[C@@H](O)[C@H](O)C[C@H](O)C[C@](O)(C[C@@H]1O)O2 (stereo partly drawn) [Example X, methyl ester of N-methyl-N-D-fructosylamphotericin B L-aspartate]
level of aspartate aminotransferase [3]: No increased level
level of creatinine [3]: No increased level
MTD ([4]; ip, intraperitoneal, for 5 days, read-out: maximum multiple tolerated dose): > 100 mg/kg
MTD ([4]; ip, intraperitoneal, single dose, in 5% glucose, read-out: maximum single tolerated dose (MTD)): > 200 mg/kg
MTD ([4]; iv, single dose, in 5% glucose, read-out: maximum single tolerated dose (MTD)): 100 mg/kg
toxic effects (Balb/c mice): toxic effects were not observed
EH50 (concentration at which 50% of hemolysis occurred) (human erythrocytes; 30 min): above 350 μg/ml
LD50 at 168 h (Acute toxicity (LD50)): 400 mg/kg
solubility in N,N-dimethylformamide, dimethylsulphoxide and 5% water solution of glucose (Solubility; DMF, DMSO, 5% aqueous glucose): soluble
solubility in water (Solubility; water): very well soluble in water
IC50 ([1]; ATCC262778, 24 h, read-out: IC50 (concentration inhibiting growth of fungi by 50%)): 0.125 µg/mL (≈ 0.112 µM)
ED50 (Candida albicans; 5 weeks observation, read-out: ED50 based on the survival): 2.3 mg/kg
ED50 (Candida albicans; clearance of Candida from kidneys, read-out: ED50 based on the kidneys clearance): 6 mg/kg

N-methyl-N-fructosyltrychomycin methyl ester [Example VI]
EH50 (concentration at which 50% of hemolysis occurred) (human erythrocytes): ≈ 165 μg/ml
IC50 (concentration inhibiting growth of fungi by 50%) [1]: 0.013 µg/mL

N-methyl-N-D-fructosylcandidin methyl ester [Example II]
EH50 (concentration at which 50% of hemolysis occurred) (human erythrocytes): above 300 μg/ml
IC50 (concentration inhibiting growth of fungi by 50%) [1]: 0.75 µg/mL

COC(=O)[C@H]1[C@@H]2C[C@@H](O[C@@H]3O[C@H](C)[C@@H](O)[C@H](N(C)CC4(O)OC[C@@H](O)[C@@H](O)[C@@H]4O)[C@@H]3O)/C=C/C=C/C=C/C=C/C=C/C=C/C=C/[C@H](C)[C@@H](O)[C@@H](C)[C@H](C)OC(=O)C[C@H](O)C[C@H](O)CC[C@@H](O)[C@H](O)C[C@H](O)C[C@](O)(C[C@@H]1O)O2 (single isomer, unassigned) [Example I, N-methyl-N-D-fructosylamphotericin B methyl ester]
HC50 at 0.5 h [2]: > 350 µg/mL
solubility (Solubility; under conditions of the haemolysis experiment, read-out: solubility limit (insoluble above)): ≤ 350 µg/mL
IC50 (concentration inhibiting growth of fungi by 50%) [1]: 0.12 µg/mL

N-methyl-N-D-fructosylcandidin D methyl ester [Example V]
EH50 (concentration at which 50% of hemolysis occurred) (human erythrocytes): ≈ 180 μg/ml
IC50 (concentration inhibiting growth of fungi by 50%) [1]: 0.01 µg/mL
